This note sets out measurements from EP0810207A1, “Bis-ortho-substituted benzoylguanidines, process for their preparation, their use as medicament or diagnostic agent and medicaments containing them” (HOECHST AKTIENGESELLSCHAFT, priority 1996, dated 1997).

Structures can show the parent of a compound that is named as a salt. Bounds are passed on as bounds.

The experiment addresses T1, Na^+/H^+-Exchangers von Kaninchenerythrocyten (Oryctolagus cuniculus, UniProt P23791).
T1 construct: den Na^+-Influx in die Erythrocyten via Na^+/H^+-Austausch flammenphotometrisch bestimmen zu können; from tissue; host or cells: Erythrocytes from ear-artery blood of cholesterol-fed New Zealand White rabbits
As to the kind of experiment: Inhibition of the Na+/H+ exchanger of rabbit erythrocytes (amiloride-sensitive sodium influx, flame photometry). The class given is cell-based, Kaninchen. To be noted: hyperosmolar salt-sucrose medium, pH 7,4, 37°C, read-out: IC50 Inhibition des Na^+/H^+-Exchangers. An excerpt:
Inhibition des Na^+/H^+-Exchangers von Kaninchenerythrocyten Weiße Neuseeland-Kaninchen (Ivanovas) erhielten eine Standard-Diät mit 2% Cholesterin für sechs Wochen, um den Na^+/H^+-Austausch zu aktivieren und so den Na^+-Influx in die Erythrocyten via Na^+/H^+-Austausch flammenphotometrisch bestimmen zu können. Das Blut wurde den Ohrarterien entnommen und durch 25 IE Kalium-Heparin ungerinnbar gemacht. Ein Teil jeder Probe wurde zur Doppelbestimmung des Hämatokrits durch Zentrifugieren benutzt. Aliquots von jeweils 100 µl dienten zur Messung des Na^+-Ausgangsgehalts der Erythrocyten.
Um den Amilorid-sensitiven Natrium-Influx zu bestimmen, wurden 100 µl jeder Blutprobe in jeweils 5 ml eines hyperosmolaren Salz-Sucrose-Mediums (mmol/l: 140 NaCl, 3 KCl, 150 Sucrose, 0,1 Ouabain, 20 Tris-hydroxymethylaminomethan) bei pH 7,4 und 37°C inkubiert. Die Erythrocyten wurden danach dreimal mit eiskalter MgCl2-Ouabain-Lösung (mmol/l: 112 MgCl2, 0,1 Ouabain) gewaschen und in 2,0 ml destilliertem Wasser hämolysiert. Der intrazelluläre Natriumgehalt wurde flammenphotometrisch bestimmt.
Der Na^+-Nettoinflux wurde aus der Differenz zwischen Natrium-Ausgangswerten und dem Natriumgehalt der Erythrocyten nach Inkubation errechnet. Der Amilorid-hemmbare Natrium-Influx ergab sich aus der Differenz des Natriumgehalts der Erythrocyten nach Inkubation mit und ohne Amilorid 3 x 10^-4 mol/l. Auf diese Weise wurde auch bei den erfindungsgemäßen Verbindungen verfahren.

T1 sequence (P23791 whole entry): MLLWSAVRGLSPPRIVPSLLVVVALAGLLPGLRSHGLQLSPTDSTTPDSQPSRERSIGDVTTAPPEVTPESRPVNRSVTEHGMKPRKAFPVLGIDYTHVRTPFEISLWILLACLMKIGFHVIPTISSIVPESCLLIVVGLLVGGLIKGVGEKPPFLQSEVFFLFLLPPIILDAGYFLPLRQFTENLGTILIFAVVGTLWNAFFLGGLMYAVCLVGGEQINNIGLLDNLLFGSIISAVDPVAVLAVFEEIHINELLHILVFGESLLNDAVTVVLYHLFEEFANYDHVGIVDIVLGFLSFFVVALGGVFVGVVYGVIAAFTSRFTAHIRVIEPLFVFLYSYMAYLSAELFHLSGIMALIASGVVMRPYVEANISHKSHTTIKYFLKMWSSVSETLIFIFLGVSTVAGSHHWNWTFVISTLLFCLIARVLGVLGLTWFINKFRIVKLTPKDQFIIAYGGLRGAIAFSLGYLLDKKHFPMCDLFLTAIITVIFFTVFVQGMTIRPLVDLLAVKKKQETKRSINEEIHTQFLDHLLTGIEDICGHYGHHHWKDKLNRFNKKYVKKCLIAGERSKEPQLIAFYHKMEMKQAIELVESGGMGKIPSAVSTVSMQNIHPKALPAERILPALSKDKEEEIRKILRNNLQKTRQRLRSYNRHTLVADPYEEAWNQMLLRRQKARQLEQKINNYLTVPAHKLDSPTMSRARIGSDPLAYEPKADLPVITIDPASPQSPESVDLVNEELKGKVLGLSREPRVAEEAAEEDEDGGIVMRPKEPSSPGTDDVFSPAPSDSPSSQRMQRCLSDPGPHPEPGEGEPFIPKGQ

Consider `NC(N)=NC(=O)c1c(F)cccc1C(F)(F)F` [Beispiel 5, 2-Fluor-6-trifluormethyl-benzoylguanidin-hydrochlorid], for which the IC50 came out at 10 µM.

In the case of `COc1ccc(Cl)c(OC)c1C(=O)N=C(N)N` [Beispiel 2, 3-Chlor-2,6-dimethoxy-benzoylguanidin-hydrochlorid], the IC50 was determined as 8.5 µM.

Take `COc1ccc(C(F)(F)F)c(OC)c1C(=O)N=C(N)N` [Beispiel 6, 3-Trifluormethyl-2,6-dimethoxy-benzoylguanidin-hydrochlorid]: the IC50 was more than 10 µM.

For the compound `NC(N)=NC(=O)c1c(F)cccc1F` [Beispiel 4, 2,6-Difluor-benzoylguanidin-hydrochlorid], the IC50 was more than 10 µM.

With `NC(N)=NC(=O)c1c(F)c(F)c(O)c(F)c1F` [Beispiel 3, 4-Hydroxy-2,3,5,6-tetrafluor-benzoylguanidin-hydrochlorid], the IC50 was 0.3 µM.

In the case of `N=C(N)NC(=O)c1c(Cl)cccc1Cl` [Beispiel 1, 2,6-Dichlor-benzoylguanidin-hydrochlorid], the IC50 worked out at 10 µM.
